Patent publication US20240050449A1, “Use of Acetyltanshinone IIA in Preparation of Medicament for Treating Lung Cancer and Medicament for Treating Lung Cancer” (UNIVERSITY OF MACAU, priority 2022, published 2024)

Assays:
[1] = system: p70S6K, AURKA, MET, S6RP and EGFR protein levels; assay: Western blot time course of protein reduction in A549 and H1650 cells; assay type: cell-based; conditions: 2 μM
Procedure: Cells were washed once with PBS and frozen in RIPA lysis buffer containing protease and phosphatase inhibitors (Sigma-Aldrich) for 30 min. After sonication and centrifugation, the total protein concentration was determined by protein assay using Bio-Rad concentrated dye reagent (Bio-Rad). Equal amounts of protein ([…]) from each sample were separated by SDS-PAGE and electrotransferred to nitrocellulose membranes (GE Healthcare). Detection was performed on the membrane with a 1:1000 dilution of specific primary antibody followed by incubation with a 1:2000 dilution of the HRP conjugated secondary antibody. Finally, immunoreactivity is detected with a chemiluminescent substrate (Clarity Western ECL substrate; Bio-Rad). EGFR (#4267S), MET (#8198S), p-Akt (#9271L), akt (#9272S), p-mTOR (#5536S), mTOR (#2983S), p-p70S6K (#9234S), p70S6K (#2708S), p-S6RP (#4857S), S6RP (#2217S), p-4E-BP1 (#9455S) antibodies. 4E-BP1 (#9644S), p53 (#2527S), p21 waf1/Cip1 (#2947S), survivin (#2808S), cyclin B1 (#12231S), cyclin D3 (#2936S) and GAPDH (#2118S) were purchased from Cell Signaling Technology. Aurora A (#ab13824) and PLK1 (#ab189139) antibodies were from Abcam.
In FIGS. 7, A549 and H1650 cells were treated with ATA (2 μM) for 6, 12, 24, 36, and 48 h, and the protein levels of p70S6K, AURKA, MET, S6RP, and EGFR at each time point were determined by Western blot analysis as shown in (A), and the quantified protein levels are shown in (B). […] (D) is protein levels of p70S6K, p-p70S6K, S6RP, p-S6RP, p21, cyclin D3, AURKA, PLK1, cyclin B1, survivin, EGFR, and MET determined by Western blot analysis for A549 and H1650 cells treated with 10 nM p70S6K siRNA and siRNA negative control for 48 h. (E) is cell viability measured by MTT test for A549 and H1650 cells treated with 10 nM p70S6K siRNA and the negative control siRNA for 48 h. ****P<0.0001 was based on a one-way analysis of variance followed by Tukey's multiple comparison test. (F) It is protein levels of p21, cyclin D3, AURKA, PLK1, cyclin B1, survivin, EGFR, and MET determined by Western blot analysis for A549 and H1650 cells treated with LY294002 (2 μM), PF-4708671 (2 μM), rapamycin (2 μM) and ATA (2 μM) for 48 h. (G) is expression levels of EGFR, MET, p-p70S6K, p70S6K, p-S6RP, S6RP, p21, cyclin D3, AURKA, PLK1, cyclin B1 and survivin in fibroblast HDF, A549 and H1650 cells determined by Western blot analysis, respectively. Statistical data are expressed as the mean SD of three independent experiments.

A549 cells = assay: Transwell cell migration assay; assay type: cell-based
Procedure: Cell migration and invasion assays were performed in a transwell chamber (Corning, #3422) with a pore size of 8 μm. Cells were treated with different concentrations of ATA and Erlotinib for 48 h, then harvested and resuspended in a serum-free medium. Cells (1×10^4) were added to the upper side of the transwell chamber and fresh medium containing 10% FBS was added to the lower side. Cells were allowed to migrate from the upper side to the lower side of the chamber at 37° C. for 24 h. Membranes from the cell chamber were fixed with 4% paraformaldehyde for 20 min. The cells remaining on the upper side of the membrane were gently removed with a cotton swab and stained with 1% crystal violet for 20 min to stain the cells migrating to the other side of the transwell chamber. The membrane was then cut and fixed on a glass slide. The migrated cells on each slide were imaged with a Leica M165-FC microscope. For the transwell invasion assay, a Matrigel solution (Corning, #356230) was diluted to one-thirtieth with serum-free medium and applied to the upper side of the precoated chamber for 2 h, after the Matrigel had solidified, the cells were added to the upper side of the transwell chamber. The following procedure is identical to the migration assay. Migrated and invaded cells were quantified using ImageJ software.

## CC(=O)Oc1c(OC(C)=O)c2c(C)coc2c2ccc3c(c12)CCCC3(C)C [ATA, acetyltanshinone IIA]
[1]
  time at which AURKA protein decreased: 12 h
  time at which EGFR protein decreased: 48 to 72 h
  time at which MET protein decreased: 24 h
  time at which S6RP protein decreased: 36 h
  time at which p70S6K protein decreased: 6 h
A549 cells; 0.5 μM
  effect on cell migration: significant inhibitory effect
A549 cells; 1 μM
  reduction of migration ability: 80%
